Measured values from article PMC8402032, “Unsymmetric Cisplatin-Based Pt(IV) Conjugates Containing a PARP-1 Inhibitor Pharmacophore Tested on Malignant Pleural Mesothelioma Cell Lines” (Molecules, 2021).
Like-named read-outs stand apart in the source and are kept apart here.

Experiments:
[1] = Lipophilicity by RP-HPLC (log k′); format: physicochemical; conditions: RP-HPLC C18, 15 mM formic acid/CH3OH 30/70
Source text: Since it has been reported that Pt(IV) complexes enter cells by passive diffusion only, with a few exceptions, the evaluation of lipophilicity is key because it is related to the ability of a molecule to passively cross cellular membranes. RP-HPLC techniques are often used to measure the lipophilicity of a compound, since the retention is due to partitioning between the C18 chains of the stationary phase (representing the cellular membrane) and the aqueous eluent (representing the water inside and outside cells). For this purpose, the retention times (tR) of the complexes were transformed as log k′, where k′ = (tR − t0)/t0) and t0 is the column dead-time (Table 1).
RP-HPLC was used to evaluate the capacity factors of the compounds as reported elsewhere. Briefly, a chromatogram for each Pt complex (0.5 mM) was run on a C18 column Phenosphere-NEXT (5-μm, 250 × 4.6 mm ID) with an eluant composition of 15 mM formic acid/CH3OH 30/70 and a flow rate of 0.5 mL min^−1. The corresponding retention time tR was used to calculate log k′, where k′ = (tR − t0)/t0. The dead time of the column t0 was the tR of KCl, added as unretained internal reference.

[2] = test system: BR95 (epithelioid) malignant pleural mesothelioma cells; assay: Cell viability assay (Trypan blue dye exclusion), BR95; format: cell-based, human; conditions: 72 h treatment; for IC50: mean ± sd
Method: (§1) Complexes 6–9 were tested on a panel of human MPM cell lines together with CDDP and SAA1, added for comparison (Table 1). The half-maximal inhibitory concentration, IC50, was determined on MSTO-211H (biphasic phenotype), REN (epithelioid), BR95 (epithelioid), and MM98 (sarcomatoid) cancer cell lines to identify the most promising Pt(IV) conjugate to be further investigated. To determine the number of viable cells, the use of the dye exclusion assay was preferred to the colorimetric assay because of the heterogeneity in the energy metabolism between the different MPM cell lines. This may justify minor differences with respect to the previously published IC50 for CDDP [40].
(§2) Cells were seeded at a density of 10 × 10^4 cells per well in 6-well plates in RPMI medium supplemented with 10% fetal bovine serum (FBS), 100 μg mL^−1 streptomycin, and 10 μg mL^−1 penicillin and incubated overnight at 37 °C in a humidified environment containing 5% CO2 to allow adherence. Cisplatin was dissolved in 0.9% w/v aqueous NaCl brought to pH = 3 with HCl (final stock concentration 1 mM). The Pt(IV) complexes were dissolved in DMSO (final stock concentration 5 mM); the resulting solutions were microfiltered (0.45 μm) and their Pt content was checked by ICP-MS (see Section 3.5.2). These mother solutions were diluted in complete medium to the required concentration range.
(§3) Following 72 h of treatment with the diluent of the compound (Ctrl) or different doses of the Pt compounds, cells were trypsinized and stained with Trypan blue. The number of cells considered viable (unstained cells) was counted in a Bürker haemocytometer within 5 min after staining.

[3] = test system: MM98 (sarcomatoid) malignant pleural mesothelioma cells; assay: Cell viability assay (Trypan blue dye exclusion), MM98; format: cell-based, human; conditions: 72 h treatment; for IC50: mean ± sd
Method: as §1, §2, §3

[4] = Reduction with ascorbic acid followed by RP-HPLC; format: physicochemical; conditions: ascorbic acid 10 mM, HEPES 50 mM pH 7.4, 37 °C, cosolvent DMF or MeOH
Method: To verify the activation by reduction mechanism, complexes 6–9 were challenged with the model bioreductant ascorbic acid (AA, 10 mM in water) in HEPES buffer (HEPES = 4-(2-hydroxyethyl)-1-piperazineethanesulfonic acid, 50 mM, pH = 7.4) at 37 °C. The reaction was monitored by following the RP-HPLC peaks over 24 h. The different solubility and retention times required different experimental conditions for the different compounds (cosolvent DMF or MeOH was necessary to maintain the Pt compounds in solution, >5% v/v). For these reasons, complete reduction for 8 and 9 was observed after 8 h, whereas for 6 and 7, the >85% peak area disappeared after 24 h only. […] Complexes 6–9, having very similar coordination skeletons, can be expected to behave in the same way.
The reduction of complexes with ascorbic acid was followed by monitoring of the reduction of the area of their chromatographic peaks via RP-HPLC over 24 h at 37 °C. The Pt compounds were dissolved in methanol or DMF (up to 20 mM) and diluted with different quantities of 50 mM 4-(2-hydroxyethyl)piperazine-1-ethanesulfonic acid (HEPES) buffer (pH = […]) containing 10 mM ascorbic acid. The mixtures were microfiltered to eliminate the precipitated complex. The chromatographic conditions were similar to those for the determination of lipophilicity (see Section 3.4), with different percentages of methanol depending on the complex.

[5] = test system: MSTO-211H (biphasic phenotype) malignant pleural mesothelioma cells; assay: Cell viability assay (Trypan blue dye exclusion), MSTO-211H; format: cell-based, human
Method: as §1, §2, §3

[6] = test system: REN (epithelioid) malignant pleural mesothelioma cells; assay: Cell viability assay (Trypan blue dye exclusion), REN; format: cell-based, human; conditions: 72 h treatment; for IC50: mean ± sd
Method: as §1, §2, §3

MSTO-211H cells = assay: Cell uptake (intracellular Pt by ICP-MS); format: cell-based, human; conditions: 10 μM, 4 h treatment, mean ± sd
Method: Cellular accumulation of compounds 6–9 was evaluated by means of the intracellular Pt uptake after 4 h treatment of MSTO-211H cells and expressed as ng Pt per 10^6 cells (Table 1). As expected, the Fmoc protection of 6 and 7 enhances the lipophilicity of the complexes, facilitating their cell uptake. Also the elongation of the organic linker from -(CH2)2- to -(CH2)6- increases (to a minor extent) the lipophilicity in 7 and 9 with respect to 6 and 8.
MSTO-211H cells were seeded in […] Petri dishes and challenged with the compounds and mixtures under investigations (10 μM) in complete medium. At the end of the exposure, cells were washed three times with phosphate buffered saline (PBS) and detached from the Petri dishes using 0.05% Trypsin 1X + 2% EDTA (HyClone, Thermo Fisher). The cells were harvested in fresh complete medium and an automatic cell counting device (Countess®, Life Technologies, Carlsbad, CA, USA) was used to measure the number and the mean diameter from every cell count. The harvested cells were transferred into a borosilicate glass tube and centrifuged at 1100× g rpm for 5 min at room temperature. The supernatant was carefully removed by aspiration, but about 200 μL of the supernatant was left in order to limit the cellular loss. Finally, the cellular pellets were stored at −80 °C. Platinum content determination was performed by ICP-MS (Thermo Optek X Series 2). Complete mineralization was obtained by the addition of 70% w/w HNO3 to each sample (after defrosting), followed by incubation for 1 h at 60 °C in an ultrasonic bath. Before the ICP-MS measurement, the HNO3 was diluted to a final 1% concentration. The instrumental settings were optimized to yield maximum sensitivity for platinum, and the most abundant isotopes of Pt (m/z = 195) and In (m/z = 115, used as internal standard) were quantified. The level of Pt found in cells after the treatment was normalized to the cell number and expressed as ng of Pt per 10^6 cells.

PARP-1 = molecular target: T1, PARP-1 (Homo sapiens, UniProt P09874); assay: Western blot of poly(ADP-ribose) (PAR) and PARP-1 in MSTO-211H cells; format: cell-based; conditions: 5 µM, 72 h
T1 construct: endogenous in cells; host or cells: MSTO-211H cells
Method: The effect of the most promising complex 6 on PARP-1 activity was further evaluated. MSTO-211H cells were treated with equimolar concentrations (5 µM) of 6, CDDP, and 3-ABA for 72 h. The two last compounds were used either alone or in combination in a 1:1 molar ratio. Western blot analysis evaluated the expression of poly(ADP-ribose) (PAR), which is the product of PARP-1 activity (Figure 4A).
For protein analysis, cells were extracted with 1% NP-40 lysis buffer (50 mM Tris-HCl pH 8.5 containing 1% NP-40, 150 mM NaCl, 10 mM EDTA, 10 mM NaF, 10 mM Na4P2O7, and 0.4 mM Na3VO4) with freshly added protease inhibitors (10 μg mL^−1 leupeptin, 4 μg mL^−1 pepstatin, and 0.1 U mL^−1 aprotinin). Lysates were centrifuged at 13,000× g for 10 min at 4 °C and the supernatants were collected and assayed for protein concentration with the Bradford assay method (Bio-Rad). Proteins were separated by SDS-PAGE (sodium dodecyl sulfate polyacrylamide gel electrophoresis) under reducing conditions. Following SDS-PAGE, proteins were transferred to nitrocellulose, reacted with specific antibodies, and then detected with peroxidase-conjugate secondary antibodies and chemioluminescent ECL reagent. Digital images were taken with the Bio-Rad ChemiDocTM Touch Imaging System and quantified using Bio-Rad Image Lab 5.2.1.
Figure 4 (A) Representative Western blot showing poly(ADP-ribose) (PAR) and PARP-1 expression following 72 h MSTO-211H cell treatment with diluent (Ctrl) or 5 µM concentrations of cisplatin (CDDP), 6, CDDP + 3-ABA combination (1:1 ratio), and 3-ABA alone. HSC70 protein was used as loading control. (B) Immunocytochemistry was used to capture representative γH2AX focus images following 72 h MSTO-211H cell treatment with diluent (Ctrl) or 5 µM of complex 6.

[7] = 72 h treatment, mean ± sd, read-out: IC50 MSTO-211H

T1 sequence (P09874 whole entry): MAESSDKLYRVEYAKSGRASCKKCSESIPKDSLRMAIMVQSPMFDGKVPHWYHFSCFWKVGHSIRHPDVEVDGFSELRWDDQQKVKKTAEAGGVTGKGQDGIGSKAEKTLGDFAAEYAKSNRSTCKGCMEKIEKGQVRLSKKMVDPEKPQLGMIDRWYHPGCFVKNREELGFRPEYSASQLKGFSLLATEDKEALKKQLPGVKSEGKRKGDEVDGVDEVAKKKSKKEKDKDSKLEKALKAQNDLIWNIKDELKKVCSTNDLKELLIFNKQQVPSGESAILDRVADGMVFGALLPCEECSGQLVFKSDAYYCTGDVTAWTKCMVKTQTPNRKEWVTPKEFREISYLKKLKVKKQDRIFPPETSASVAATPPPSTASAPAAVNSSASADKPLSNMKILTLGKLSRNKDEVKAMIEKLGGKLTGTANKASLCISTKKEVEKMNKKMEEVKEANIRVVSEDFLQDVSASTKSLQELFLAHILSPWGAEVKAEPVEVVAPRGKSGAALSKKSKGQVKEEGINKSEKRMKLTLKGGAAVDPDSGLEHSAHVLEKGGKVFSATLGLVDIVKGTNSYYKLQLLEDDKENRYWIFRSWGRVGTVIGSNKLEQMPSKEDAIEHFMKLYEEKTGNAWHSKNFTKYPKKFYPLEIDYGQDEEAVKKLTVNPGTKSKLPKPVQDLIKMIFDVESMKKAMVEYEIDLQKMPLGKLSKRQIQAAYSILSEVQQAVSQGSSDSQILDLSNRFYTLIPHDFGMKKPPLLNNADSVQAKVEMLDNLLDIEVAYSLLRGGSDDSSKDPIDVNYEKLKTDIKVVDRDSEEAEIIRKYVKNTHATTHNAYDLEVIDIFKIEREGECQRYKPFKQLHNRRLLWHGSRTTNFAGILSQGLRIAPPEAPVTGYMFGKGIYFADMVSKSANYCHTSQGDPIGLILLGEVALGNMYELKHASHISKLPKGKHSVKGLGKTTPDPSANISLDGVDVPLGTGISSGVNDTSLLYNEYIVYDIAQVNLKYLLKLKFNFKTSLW

Structure (SMILES): CC(=O)[O][Pt]([NH2])([NH2])([Cl])([Cl])[O]C(=O)CCCCCCNC(=O)c1cccc(NC(=O)OCC2c3ccccc3-c3ccccc32)c1 [Compound 7, (OC-6-44)-Acetato-[7-(3-(fmoc-amino)-benzamido)-heptanoato]-diammine-dichlorido-platinum(IV)]
- Log k′ [1]: 5.84
- ratio IC50 (cisplatin)/IC50 (Pt(IV) complex), BR95 [2]: 0.98
- IC50 [2]: 2.19 ± 0.13 µM
- ratio IC50 (cisplatin)/IC50 (Pt(IV) complex), MM98 [3]: 3.9
- IC50 [3]: 0.45 ± 0.08 µM
- peak area disappeared after 24 h ([4]; 24 h): > 85%
- ratio IC50 (cisplatin)/IC50 (Pt(IV) complex), MSTO-211H ([5]; 72 h treatment): 0.77
- IC50 [5, 7]: 1.48 ± 0.02 µM
- ratio IC50 (cisplatin)/IC50 (Pt(IV) complex), REN [6]: 1.4
- IC50 [6]: 2.22 ± 0.08 µM
- Pt Uptake (MSTO-211H cells): 10.86 ± 1.17 ng Pt per 10^6 Cells

Structure (SMILES): CC(=O)[O][Pt]([NH2])([NH2])([Cl])([Cl])[O]C(=O)CCNC(=O)c1cccc(N)c1 [Compound 8, (OC-6-44)-Acetato[3-(3-aminobenzamido)-propanoato]-diammine-dichlorido-platinum(IV)]
- Log k′ [1]: 0.25
- ratio IC50 (cisplatin)/IC50 (Pt(IV) complex), BR95 [2]: 0.038
- IC50 [2]: 56.8 ± 4.3 µM
- ratio IC50 (cisplatin)/IC50 (Pt(IV) complex), MM98 [3]: 0.030
- IC50 [3]: 58.4 ± 2.7 µM
- time to complete reduction [4]: 8 h
- ratio IC50 (cisplatin)/IC50 (Pt(IV) complex), MSTO-211H ([5]; 72 h treatment): 0.039
- IC50 [5, 7]: 28.9 ± 2.9 µM
- ratio IC50 (cisplatin)/IC50 (Pt(IV) complex), REN [6]: 0.065
- IC50 [6]: 46.9 ± 3.2 µM
- Pt Uptake (MSTO-211H cells): 2.50 ± 1.16 ng Pt per 10^6 Cells

Structure (SMILES): CC(=O)[O][Pt]([NH2])([NH2])([Cl])([Cl])[O]C(=O)CCCCCCNC(=O)c1cccc(N)c1 [Compound 9, (OC-6-44)-Acetato-[7-(3-aminobenzamido)-heptanoato]-diammine-dichlorido-platinum(IV)]
- Log k′ [1]: 0.34
- ratio IC50 (cisplatin)/IC50 (Pt(IV) complex), BR95 [2]: 0.054
- IC50 [2]: 39.7 ± 2.7 µM
- IC50 [3]: 44.1 ± 3.5 µM
- time to complete reduction [4]: 8 h
- ratio IC50 (cisplatin)/IC50 (Pt(IV) complex), MSTO-211H ([5]; 72 h treatment): 0.021
- IC50 [5, 7]: 54.9 ± 3.1 µM
- ratio IC50 (cisplatin)/IC50 (Pt(IV) complex), REN [6]: 0.079
- IC50 [6]: 38.9 ± 2.2 µM
- Pt Uptake (MSTO-211H cells): 3.12 ± 0.78 ng Pt per 10^6 Cells

Structure (SMILES): NC(=O)c1cccc(N)c1 [Compound 3-ABA, 3-aminobenzamide, reference compound]
- IC50 ([5]; Homo sapiens, MSTO-211H, read-out: IC50 on MSTO-211H): 5412 ± 28 µM
- PARP-1 parylation (PAR expression) (PARP-1): No self-parylation of PARP-1

Structure (SMILES): N.N.[Cl][Pt][Cl] [Cisplatin, CDDP, (SP-4-2)-diamminedichloridoplatinum(II), reference compound]
- IC50 [2]: 2.15 ± 0.29 µM
- IC50 [3]: 1.75 ± 0.09 µM
- IC50 [5, 7]: 1.14 ± 0.07 µM
- IC50 [6]: 3.07 ± 0.43 µM
- PARP-1 cleavage (PARP-1): did not induce PARP-1 cleavage
- PARP-1 parylation (PAR expression) (PARP-1): increase in PARP-1 parylation
- Pt Uptake (MSTO-211H cells): 9.23 ± 0.96 ng Pt per 10^6 Cells
